Test results published in patent US20230141887A1, “CRYSTAL FORM OF DIAZASPIROPYRAN COMPOUND” (MEDSHINE DISCOVERY INC., priority 2020, published 2023).
Where a chain is given by its changes, count along the chain named.

What was measured:
[1] = molecular target: T1, FLT3(D835Y) (Homo sapiens, UniProt P36888, D835Y); assay type: binding
T1 sequence (P36888 27-993 D835Y): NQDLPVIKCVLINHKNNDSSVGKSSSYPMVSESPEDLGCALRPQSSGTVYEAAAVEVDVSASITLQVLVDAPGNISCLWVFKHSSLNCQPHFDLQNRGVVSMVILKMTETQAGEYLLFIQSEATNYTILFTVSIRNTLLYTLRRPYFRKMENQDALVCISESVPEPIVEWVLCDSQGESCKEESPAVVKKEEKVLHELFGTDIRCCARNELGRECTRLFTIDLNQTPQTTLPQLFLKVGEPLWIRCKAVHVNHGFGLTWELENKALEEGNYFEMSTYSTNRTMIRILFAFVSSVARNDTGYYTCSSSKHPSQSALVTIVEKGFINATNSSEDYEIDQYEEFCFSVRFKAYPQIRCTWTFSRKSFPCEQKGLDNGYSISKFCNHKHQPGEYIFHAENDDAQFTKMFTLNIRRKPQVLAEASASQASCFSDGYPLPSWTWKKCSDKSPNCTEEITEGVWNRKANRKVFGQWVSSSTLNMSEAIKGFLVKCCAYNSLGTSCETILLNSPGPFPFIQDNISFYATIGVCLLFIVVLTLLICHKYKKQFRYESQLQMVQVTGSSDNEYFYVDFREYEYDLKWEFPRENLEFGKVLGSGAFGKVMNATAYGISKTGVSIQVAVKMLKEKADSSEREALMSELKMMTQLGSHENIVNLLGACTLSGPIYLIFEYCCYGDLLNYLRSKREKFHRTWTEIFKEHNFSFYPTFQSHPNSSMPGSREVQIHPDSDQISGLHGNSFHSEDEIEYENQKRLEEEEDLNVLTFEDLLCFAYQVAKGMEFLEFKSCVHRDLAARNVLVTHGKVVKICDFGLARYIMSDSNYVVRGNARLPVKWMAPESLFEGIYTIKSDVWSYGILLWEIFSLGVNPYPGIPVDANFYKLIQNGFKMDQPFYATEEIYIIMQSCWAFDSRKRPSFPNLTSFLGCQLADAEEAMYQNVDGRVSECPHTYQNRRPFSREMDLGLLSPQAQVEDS
Experimental: (§1) The assay was carried out using KINOMEscan™ technology. The assay compounds were stored in 100% DMSO. The assay was carried out by means of 3-fold dilution and 11-point fitting. All compounds used for Kd determination were dispersed by ultrasound, then directly diluted and tested. All reactions were carried out in a 384-well polypropylene plate. Each portion has a final volume of 0.02 ml. The plate was incubated with shaking at room temperature for 1 hour, and then processed. The kinase concentration in the eluent was finally determined by qPCR method. Kd was obtained by fitting.

[2] = molecular target: T2, FLT3(D835H) (Homo sapiens, UniProt P36888, D835H); assay type: binding
T2 sequence (P36888 27-993 D835H): T1 sequence (P36888 27-993 D835Y) with Y809H
Experimental: as §1

[3] = In vivo pharmacokinetic assay in rats; design: species or system SD male rats
Experimental: SD male rats aged 7 to 10 weeks were selected. The rats were fasted for at least 12 hours before the administration, and resumed feeding 4 hours after the administration. The rats had free access to water throughout the assay period.
On the day of the assay, the animals in the intravenous group were administrated the corresponding compound through a single injection in the tail vein at an administration volume of 5 mL/kg; the oral group were administrated the corresponding compound through a single intragastric gavage at an administration volume of 10 mL/kg. The animals were weighed before administration, and the administration volume was calculated based on the body weight. The time for collecting samples was: 0.083 (the injection group), 0.25, 0.5, 1, 2, 4, 6, 8, 24 h. About 200 μL of whole blood was collected from the jugular vein at each time point to prepare plasma for concentration determination by high-performance liquid chromatography-tandem mass spectrometry (LC-MS/MS). All animals were euthanized by CO2 anesthesia after collecting the PK samples at the last time point. The plasma concentrations were processed by non-compartmental model of WinNonlin™ Version 6.3 (Pharsight, Mountain View, Calif.) pharmacokinetic software, and the pharmacokinetic parameters were calculated by the linear logarithm trapezoidal method.

Compound: CCc1nc(C(N)=O)c(Nc2ccc(N3CCC4(CCN(C)CC4)CC3)c(C)c2)nc1NC1CCOCC1.O=C(O)C(F)(F)F
- Kd [1]: 1.4 nM
- Kd [2]: 2.3 nM
- AUC0-last ([3]; Injection, 1 mg/kg): 457 nm·h
- Cl ([3]; Injection, 1 mg/kg): 3.67 L/h/kg
- T1/2 ([3]; Injection, 1 mg/kg): 2.99 h
- Vdss ([3]; Injection, 1 mg/kg): 13.3 L/kg
- Cmax ([3]; Oral, 2.5 mg/kg): 0.0406 µM
- F% ([3]; Oral, 2.5 mg/kg): 44.7%
- Tmax ([3]; Oral, 2.5 mg/kg): 8.00 h
